Patent publication US7812050B2, “Polymorphic form of fluoro-7-(2,2,2-trifluoroethoxy) phenoxathiin-10,10-dioxide” (CeNeRx BioPharma, Inc., priority 2006, dated 2010)

Legend:
[1] = Particle size by light diffraction (Sympatec HELOS, dry powder dispersion); type: physicochemical
Description: Dispersion was performed on a sample of Form A of 3-fluoro-7-(2,2,2-trifluoroethoxy)phenoxathiin-10,10-dioxide produced accordance with the method presented in Example 4. Dispersion pressure of 0.5 to 2.0 bar was used to disperse the sample particles. Samples were analyzed by microscopy prior to particle size analysis to assess aggregation and estimate particle size, and without fracturing primary particles or causing aggregation. […] Particle size was measured using a Sympatec HELOS equipped with VIERI dry powder feeder unit, and sample measurements for optimization of jet pressure and repeatability were performed according to USP<429>, Method Validation Protocol ANC00756, and TM-1509 Rev.00 (draft).

[2] = Dissolution temperature in 10% (v/v) water in acetic acid; type: physicochemical; settings: ratio (w/v) of compound to solvent about 1.6 g: 10 mL

x10 ([1]; Dispersion Pressure 0.5 bar): 3.05 μm | x50 ([1]; Dispersion Pressure 0.5 bar): 9.07 μm | x90 ([1]; Dispersion Pressure 0.5 bar): 24.49 μm | x10 ([1]; Dispersion Pressure 1 bar): 2.54 μm | x50 ([1]; Dispersion Pressure 1 bar): 7.96 μm | x90 ([1]; Dispersion Pressure 1 bar): 19.32 μm | x10 ([1]; Dispersion Pressure 1.5 bar): 2.21 μm | x50 ([1]; Dispersion Pressure 1.5 bar): 7.35 μm | x90 ([1]; Dispersion Pressure 1.5 bar): 17.1 μm | x10 ([1]; Dispersion Pressure 2 bar): 1.94 μm | x50 ([1]; Dispersion Pressure 2 bar): 6.88 μm | x90 ([1]; Dispersion Pressure 2 bar): 15.32 μm | temperature at which the form dissolves [2]: 75-85 °C
Structure (SMILES): O=S1(=O)c2ccc(F)cc2Oc2cc(OCC(F)(F)F)ccc21 [Form A, 3-fluoro-7-(2,2,2-trifluoroethoxy)phenoxathiin-10,10-dioxide]
